# ChEMBL document CHEMBL2163253, “Identification and preliminary characterization of a potent, safe, and orally efficacious inhibitor of acyl-CoA:diacylglycerol acyltransferase 1” (J Med Chem, 2012)
# Calls of active or inactive are those of the source. No cut-off for these calls is given here.
# Legend:
# [1] = biological target: T1, Diacylglycerol O-acyltransferase 1 (Homo sapiens, UniProt O75907); assay: biochemical
# T1 sequence (O75907 whole entry): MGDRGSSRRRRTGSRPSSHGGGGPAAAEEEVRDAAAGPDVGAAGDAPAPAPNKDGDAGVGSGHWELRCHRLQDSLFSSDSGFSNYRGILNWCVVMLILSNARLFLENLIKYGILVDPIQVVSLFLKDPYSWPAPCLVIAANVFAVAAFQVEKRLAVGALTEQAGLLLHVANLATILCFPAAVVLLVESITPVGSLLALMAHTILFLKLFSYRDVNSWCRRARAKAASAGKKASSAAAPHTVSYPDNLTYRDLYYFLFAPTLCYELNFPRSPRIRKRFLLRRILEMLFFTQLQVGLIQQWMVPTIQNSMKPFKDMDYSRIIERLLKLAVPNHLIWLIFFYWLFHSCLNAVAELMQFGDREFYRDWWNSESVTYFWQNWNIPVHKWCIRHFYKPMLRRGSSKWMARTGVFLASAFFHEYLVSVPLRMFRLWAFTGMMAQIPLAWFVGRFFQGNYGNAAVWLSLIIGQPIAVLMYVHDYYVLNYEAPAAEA
# Description: Inhibition of N-terminal His6-tagged human recombinant DGAT1 expressed in insect cell membrane using [1-14C]decanoyl-CoA substrate by phospholipid flash plate assay
# [2] = Stability in human liver microsomes assessed as parent compound remaining measured after 60 mins; type: ADME, Microsome; details: read-out: Stability
# [3] = Toxicity in dog Purkinje fibers assessed as prolongation of APD90 by Purkinje fibers repolarization assay; type: tissue-based, Canis lupus familiaris, Purkinje fiber; details: in vitro
# [4] = Terminal half life in mouse at 10 mg/kg, iv administered as single dose; type: ADME, organism-based; set-up: dose 10 mg/kg, route intravenous; details: in vivo, read-out: beta t1/2 (converted)
# Canis familiaris [5] = organism: Canis familiaris; assay: Toxicity in dog assessed as incidence of hemodynamic effect measured at highest compound concentration; type: organism-based, Canis lupus familiaris; details: in vivo
# [6] = Stability in mouse liver microsomes assessed as parent compound remaining measured after 60 mins; type: ADME, Microsome; details: read-out: Stability
# [7] = Plasma concentration in CD1 mouse postprandial hyperlipidemia model at 0.03 mg/kg, po administered as single dose 1 hr before oral corn oil bolus challenge and measured after 2 hrs; type: ADME, organism-based; set-up: dose 0.03 mg/kg, route oral
# [8] = Terminal half life in mouse at 10 mg/kg, po administered as single dose; type: ADME, organism-based; set-up: dose 10 mg/kg, route oral; details: in vivo, read-out: beta t1/2 (converted)
# [9] = Plasma clearance in rat at 5 mg/kg, iv administered as single dose; type: ADME, organism-based; set-up: dose 5 mg/kg, route intravenous
# [10] = biological target: T1, Diacylglycerol O-acyltransferase 1; assay: Inhibition of human DGAT1 expressed in human HeLa cells assessed as reduction in triglyceride synthesis; type: cell-based
# [11] = Cmax in dog; type: ADME, organism-based, Canis lupus familiaris; details: plasma
# [12] = Efflux ratio in human Caco2 cells at 0.5 uM at pH 7.4; type: ADME, cell-based; details: Caco-2, pH 7.4
# [13] = Oral bioavailability in mouse at 10 mg/kg administered as single dose; type: ADME, organism-based; details: in vivo
# [14] = Plasma concentration in CD1 mouse postprandial hyperlipidemia model at 3 mg/kg, po administered as single dose 1 hr before oral corn oil bolus challenge and measured after 2 hrs; type: ADME, organism-based; set-up: dose 3 mg/kg, route oral
# [15] = Permeability in human Caco2 cells at 0.5 uM at pH 7.4; type: ADME, cell-based; details: Caco-2, pH 7.4, read-out: permeability
# [16] = biological target: T2, Diacylglycerol O-acyltransferase 1 (Mus musculus, UniProt Q9Z2A7); assay: Inhibition of mouse DGAT1 using [1-14C]decanoyl-CoA substrate by phospholipid flash plate assay
# T2 sequence (Q9Z2A7 whole entry): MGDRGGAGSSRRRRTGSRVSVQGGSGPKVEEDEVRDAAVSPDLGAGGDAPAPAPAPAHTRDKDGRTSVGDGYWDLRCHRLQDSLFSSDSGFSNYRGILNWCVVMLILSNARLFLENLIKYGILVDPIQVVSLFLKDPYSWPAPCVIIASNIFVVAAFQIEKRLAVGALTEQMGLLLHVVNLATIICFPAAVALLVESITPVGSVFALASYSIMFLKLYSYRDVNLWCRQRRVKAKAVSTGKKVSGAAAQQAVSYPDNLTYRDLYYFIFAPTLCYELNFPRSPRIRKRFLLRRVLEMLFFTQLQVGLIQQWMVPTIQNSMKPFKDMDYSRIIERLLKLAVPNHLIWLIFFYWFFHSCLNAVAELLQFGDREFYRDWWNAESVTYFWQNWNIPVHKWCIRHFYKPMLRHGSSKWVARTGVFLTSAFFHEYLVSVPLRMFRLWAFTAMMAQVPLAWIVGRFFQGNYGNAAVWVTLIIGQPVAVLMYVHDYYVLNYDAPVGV
# Rattus norvegicus [17] = organism: Rattus norvegicus; assay: Toxicity in rat assessed as changes in gastrointestinal transit measured at highest compound concentration; type: organism-based; details: in vivo
# [18] = Efflux ratio in human Caco2 cells at 5 uM at pH 7.4; type: ADME, cell-based; details: Caco-2, pH 7.4
# [19] = Cmax in rat at 5 mg/kg, po administered as single dose; type: ADME, organism-based; set-up: dose 5 mg/kg, route oral; details: in vivo
# [20] = Volume of distribution at steady state in mouse at 10 mg/kg, iv administered as single dose; type: ADME, organism-based; set-up: dose 10 mg/kg, route intravenous; details: in vivo, read-out: Vdss
# [21] = Terminal half life in rat at 5 mg/kg, po administered as single dose; type: ADME, organism-based; set-up: dose 5 mg/kg, route oral; details: in vivo, read-out: beta t1/2 (converted)
# [22] = biological target: T3, Diacylglycerol O-acyltransferase 2 (Homo sapiens, UniProt Q96PD7); assay: Inhibition of human recombinant DGAT2 expressed in insect cell membrane using [1-14C]decanoyl-CoA substrate by phospholipid flash plate assay
# T3 sequence (Q96PD7 whole entry): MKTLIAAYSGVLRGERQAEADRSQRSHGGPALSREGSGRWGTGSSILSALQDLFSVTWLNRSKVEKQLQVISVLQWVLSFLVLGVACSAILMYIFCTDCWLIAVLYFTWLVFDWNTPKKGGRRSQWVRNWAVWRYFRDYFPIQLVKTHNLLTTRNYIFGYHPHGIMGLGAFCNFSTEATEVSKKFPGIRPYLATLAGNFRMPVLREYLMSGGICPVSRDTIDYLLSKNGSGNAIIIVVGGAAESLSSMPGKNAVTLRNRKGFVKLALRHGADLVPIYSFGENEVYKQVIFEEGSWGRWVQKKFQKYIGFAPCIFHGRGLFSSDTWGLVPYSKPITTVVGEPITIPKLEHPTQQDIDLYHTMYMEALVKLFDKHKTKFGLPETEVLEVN
# Mustela putorius furo = organism: Mustela putorius furo; assay: Toxicity in ferret assessed as induction of emesis; type: organism-based; details: in vivo
# Mus musculus [23] = assay: Reduction in serum triglyceride level in CD1 mouse postprandial hyperlipidemia model at 0.3 mg/kg, po administered as single dose 1 hr before oral corn oil bolus challenge and measured after 2 hrs; type: functional; set-up: scale not given: the % may be the effect or the level left
# [24] = AUC in rat at 5 mg/kg, po administered as single dose; type: ADME, organism-based; set-up: dose 5 mg/kg, route oral; details: plasma
# Rattus norvegicus [25] = assay: Toxicity in female rat assessed as toxicity symptoms at terminal compound concentration dosed orally for 2 weeks; type: organism-based; details: in vivo, po, 336 h
# Mus musculus [26] = assay: Reduction in serum triglyceride level in CD1 mouse postprandial hyperlipidemia model at 0.03 mg/kg, po administered as single dose 1 hr before oral corn oil bolus challenge and measured after 2 hrs; type: functional; set-up: scale not given: the % may be the effect or the level left
# [27] = Plasma clearance in mouse at 10 mg/kg, iv administered as single dose; type: ADME, organism-based; set-up: dose 10 mg/kg, route intravenous
# Mus musculus [28] = assay: Reduction in serum triglyceride level in CD1 mouse postprandial hyperlipidemia model administered orally as single dose 1 hr before oral corn oil bolus challenge and measured after 2 hrs; type: functional, organism-based
# Mus musculus [29] = assay: Reduction in serum triglyceride level in overnight fasted DIO mouse model at 0.3 mg/kg, po administered as single dose 1 hr before and for 5 hrs after oral corn oil bolus challenge; type: functional, organism-based; set-up: dose 0.3 mg/kg
# [30] = Oral bioavailability in rat at 5 mg/kg administered as single dose; type: ADME, organism-based; details: in vivo
# Mus musculus [31] = assay: Reduction in serum triglyceride level in CD1 mouse postprandial hyperlipidemia model at 3 mg/kg, po administered as single dose 1 hr before oral corn oil bolus challenge and measured after 2 hrs; type: functional; set-up: scale not given: the % may be the effect or the level left
# [32] = Volume of distribution at steady state in rat at 5 mg/kg, iv administered as single dose; type: ADME, organism-based; set-up: dose 5 mg/kg, route intravenous; details: in vivo, read-out: Vdss
# [33] = biological target: Voltage-gated inwardly rectifying potassium channel KCNH2 (Homo sapiens, UniProt Q12809); assay: Inhibition of human ERG by manual patch clamp assay
# Rattus norvegicus [34] = assay: AUC in female rat dosed orally for 2 weeks assessed as terminal exposure; details: in vivo, po, 336 h
# Canis familiaris [35] = assay: AUC in dog dosed orally for 2 weeks assessed as terminal exposure; details: in vivo, po, 336 h
# [36] = Cmax in rat; type: ADME, organism-based; details: plasma
# Canis familiaris [37] = assay: Toxicity in dog assessed as toxicity symptoms at terminal compound concentration dosed orally for 2 weeks; type: organism-based, Canis lupus familiaris; details: in vivo, po, 336 h
# [38] = AUC in mouse at 10 mg/kg, po administered as single dose; type: ADME, organism-based; set-up: dose 10 mg/kg, route oral; details: plasma
# [39] = Plasma concentration in CD1 mouse postprandial hyperlipidemia model at 0.3 mg/kg, po administered as single dose 1 hr before oral corn oil bolus challenge and measured after 2 hrs; type: ADME, organism-based; set-up: dose 0.3 mg/kg, route oral
# [40] = Cmax in mouse at 10 mg/kg, po administered as single dose; type: ADME, organism-based; set-up: dose 10 mg/kg, route oral; details: in vivo
# [41] = Terminal half life in rat at 5 mg/kg, iv administered as single dose; type: ADME, organism-based; set-up: dose 5 mg/kg, route intravenous; details: in vivo, read-out: beta t1/2 (converted)
# Chain of Voltage-gated inwardly rectifying potassium channel KCNH2 (Q12809 whole entry): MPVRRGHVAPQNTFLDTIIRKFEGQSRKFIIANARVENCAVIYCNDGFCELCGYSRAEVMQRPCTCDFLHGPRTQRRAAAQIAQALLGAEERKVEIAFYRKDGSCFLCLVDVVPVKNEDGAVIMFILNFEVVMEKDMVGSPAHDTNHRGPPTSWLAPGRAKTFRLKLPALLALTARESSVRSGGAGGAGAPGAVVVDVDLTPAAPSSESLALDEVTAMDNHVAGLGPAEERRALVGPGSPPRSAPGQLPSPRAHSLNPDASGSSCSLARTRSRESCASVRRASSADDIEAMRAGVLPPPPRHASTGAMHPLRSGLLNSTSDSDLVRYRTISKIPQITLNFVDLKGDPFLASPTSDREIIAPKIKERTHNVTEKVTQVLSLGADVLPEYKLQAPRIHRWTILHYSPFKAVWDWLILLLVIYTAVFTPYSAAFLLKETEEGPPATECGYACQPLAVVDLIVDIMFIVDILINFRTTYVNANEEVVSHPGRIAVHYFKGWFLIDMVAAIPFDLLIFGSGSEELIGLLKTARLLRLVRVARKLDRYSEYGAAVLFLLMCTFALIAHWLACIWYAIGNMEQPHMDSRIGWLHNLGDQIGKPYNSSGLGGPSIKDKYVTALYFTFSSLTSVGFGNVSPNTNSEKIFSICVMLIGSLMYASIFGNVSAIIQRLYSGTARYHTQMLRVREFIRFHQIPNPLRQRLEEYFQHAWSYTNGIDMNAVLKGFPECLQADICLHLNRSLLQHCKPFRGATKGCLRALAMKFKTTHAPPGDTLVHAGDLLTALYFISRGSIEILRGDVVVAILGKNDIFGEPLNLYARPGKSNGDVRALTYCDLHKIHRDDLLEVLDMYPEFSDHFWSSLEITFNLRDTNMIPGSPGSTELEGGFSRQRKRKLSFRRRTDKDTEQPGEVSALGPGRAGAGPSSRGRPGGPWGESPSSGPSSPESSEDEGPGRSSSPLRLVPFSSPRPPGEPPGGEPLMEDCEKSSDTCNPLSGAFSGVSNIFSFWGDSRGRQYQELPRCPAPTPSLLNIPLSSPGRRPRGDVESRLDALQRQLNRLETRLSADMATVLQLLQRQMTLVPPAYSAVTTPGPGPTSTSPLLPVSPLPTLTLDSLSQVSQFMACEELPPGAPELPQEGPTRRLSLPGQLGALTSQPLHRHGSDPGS
smiles,measurement,setting,value
Nc1c(-c2cccc(Br)c2)cnc2ccnn12,IC50,[1],> 10 µM
same,remaining at 1 h,[2],< 5%
Nc1c(-c2ccc(Br)cc2)cnc2ccnn12,remaining at 1 h,[2],< 5%
CC(C)(C)c1ccc(-c2cnc3ccnn3c2N)cc1,remaining at 1 h,[2],16%
CC(C)(C)c1ccc(-c2cncnc2N)cc1,remaining at 1 h,[2],73%
CS(=O)(=O)c1ccc(-c2cnc3ccnn3c2N)cc1,IC50,[1],> 10 µM
same,remaining at 1 h,[2],91%
Nc1c(-c2ccccc2Br)cnc2ccnn12,IC50,[1],> 10 µM
same,remaining at 1 h,[2],69%
Nc1c(-c2ccc([C@H]3CC[C@H](CC(=O)O)CC3)cc2)cnc2ccnn12,Activity,[3],Non-toxic
same,half-life,[4],4.6 h
same,Activity,Canis familiaris [5],Non-toxic
same,remaining at 1 h,[6],99%
same,concentration at 2 h,[7],33 ng/mL
same,half-life,[8],5.1 h
same,clearance,[9],0.833 mL/min/kg
same,IC50,[10],0.078 µM
same,IC50,[1],0.008 µM
same,Cmax,[11],20500 ng/mL
same,efflux ratio at 0.5 µM,[12],1.4
same,bioavailability,[13],78%
same,concentration at 2 h,[14],3100 ng/mL
same,Papp at 0.5 µM,[15],84 ×10⁻⁶ cm/s
same,IC50,[16],0.008 µM
same,Activity,Rattus norvegicus [17],Non-toxic
same,efflux ratio at 5 µM,[18],1.1
same,Cmax,[19],9300 ng/mL
same,Vd,[20],0.3 L/kg
same,half-life,[21],5.6 h
same,IC50,[22],> 10 µM
same,Activity,Mustela putorius furo,Non-toxic
same,Activity,Mus musculus [23],60%
same,AUC,[24],130 µg·h/mL
same,Activity,Rattus norvegicus [25],Non-toxic
same,Activity,Mus musculus [26],40%
same,clearance,[27],1.67 mL/min/kg
same,Activity,Mus musculus [28],Dose-dependent effect
same,Activity,Mus musculus [29],Active
same,bioavailability,[30],91%
same,Activity,Mus musculus [31],90%
same,remaining at 1 h,[2],97%
same,Vd,[32],0.3 L/kg
same,IC50,[33],> 300 µM
same,AUC,Rattus norvegicus [34],3455 µg·h/mL
same,AUC,Canis familiaris [35],789 µg·h/mL
same,Cmax,[36],30200 ng/mL
same,Activity,Canis familiaris [37],Non-toxic
same,AUC,[38],151 µg·h/mL
same,concentration at 2 h,[39],360 ng/mL
same,Cmax,[40],17400 ng/mL
same,half-life,[41],3.8 h
CC(C)c1ccc(-c2cnc3ccnn3c2N)cc1,remaining at 1 h,[2],< 5%
Nc1c(-c2ccccc2)cnc2ccnn12,IC50,[1],> 10 µM
Nc1c(-c2ccc(C(=O)O)cc2)cnc2ccnn12,IC50,[1],> 10 µM
same,remaining at 1 h,[2],100%
